PubChem BioAssay (NCI)
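Protocol summary: plate cells (96-well), add compound at 5 concentrations, incubate 48 h, interpolate endpoints linearly. TGI: total growth inhibition.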

Tests used:
Experiment in all cases: inhibition of tumour cell growth, NCI panel, 48 h
786-0 renal = system: 786-0 renal
ACHN renal = system: ACHN renal
CAKI-1 renal = system: CAKI-1 renal
HCT-15 colon = system: HCT-15 colon
HOP-62 NSCLC = system: HOP-62 NSCLC
IGROV1 ovarian = system: IGROV1 ovarian
K-562 leukemia = system: K-562 leukemia
KM12 colon = system: KM12 colon
MALME-3M melanoma = system: MALME-3M melanoma
NCI-H23 lung = system: NCI-H23 lung
OVCAR-4 ovarian = system: OVCAR-4 ovarian
PC-3 prostate = system: PC-3 prostate
RPMI-8226 leukemia = system: RPMI-8226 leukemia
SF-268 CNS = system: SF-268 CNS

SMILES | TGI (786-0 renal) | TGI (ACHN renal) | TGI (CAKI-1 renal) | TGI (HCT-15 colon) | TGI (HOP-62 NSCLC) | TGI (IGROV1 ovarian) | TGI (K-562 leukemia) | TGI (KM12 colon) | TGI (MALME-3M melanoma) | TGI (NCI-H23 lung) | TGI (OVCAR-4 ovarian) | TGI (PC-3 prostate) | TGI (RPMI-8226 leukemia) | TGI (SF-268 CNS)
S=C1C=C(c2ccccc2)Sc2ccccc2N1 | > 100 µM | > 100 µM | > 100 µM | > 100 µM | > 100 µM | > 100 µM | > 100 µM | > 100 µM | > 100 µM | > 100 µM | > 100 µM | > 100 µM | > 100 µM | > 100 µM
CCOC(=O)c1c(SCCO)n(-c2ccccc2)c(=S)n(-c2ccccc2)c1=O | > 100 µM | > 100 µM | > 100 µM | > 100 µM | > 100 µM | > 100 µM | > 100 µM | > 100 µM | > 100 µM | > 100 µM | > 100 µM | > 100 µM | > 100 µM | > 100 µM
O=C(NC(Nc1ccc(F)c(Cl)c1)(C(F)(F)F)C(F)(F)F)C(C(F)(F)F)C(F)(F)F | > 100 µM | 36.9 µM | > 100 µM | > 100 µM | > 100 µM | 33.4 µM | 77.1 µM | > 100 µM | 62 µM | 67.1 µM | 88.9 µM | > 100 µM | 66.8 µM | > 100 µM
C[N+]1(C)CN(c2ccccc2)C2(CCN(CCCC(=O)c3cccs3)CC2)C1=O | > 100 µM | > 100 µM | > 100 µM | > 100 µM | > 100 µM | > 100 µM | > 100 µM | > 100 µM | > 100 µM | > 100 µM | > 100 µM | > 100 µM | > 100 µM | > 100 µM
CC1OC(=O)c2ccccc2NC1=O (stereo not drawn) | > 100 µM | > 100 µM | > 100 µM | > 100 µM | > 100 µM | > 100 µM | > 100 µM | > 100 µM | > 100 µM | > 100 µM | > 100 µM | > 100 µM | > 100 µM | > 100 µM
CCCCCCCSCC(O)COC(c1ccccc1)(c1ccccc1)c1ccccc1 (stereo not drawn) | > 100 µM | 76.3 µM | > 100 µM | > 100 µM | > 100 µM | > 100 µM | > 100 µM | 16.9 µM | > 100 µM | 60.3 µM | > 100 µM | > 100 µM | 87.3 µM | 66.8 µM
Cc1n[nH]c(=O)n1N=C(c1ccccc1)c1ccccc1 | > 100 µM | > 100 µM | > 100 µM | > 100 µM | > 100 µM | > 100 µM | > 100 µM | > 100 µM | > 100 µM | > 100 µM | > 100 µM | > 100 µM | > 100 µM | > 100 µM
CC/C(Cl)=N\OC(=O)Nc1ccc(C#N)cc1 | 23.5 µM | 27.4 µM | 9.32 µM | 21.7 µM | 39.2 µM | 30.6 µM | 4.28 µM | 31.6 µM | 8.25 µM | 32 µM | 23.6 µM | 30.5 µM | 8.66 µM | 33 µM
CN1C[C@@H]2CCCN2P1Oc1cccc2cccnc12 (stereo partly drawn) | > 100 µM | > 100 µM | > 100 µM | > 100 µM | > 100 µM | > 100 µM | > 100 µM | > 100 µM | > 100 µM | 57.7 µM | > 100 µM | > 100 µM | 66.2 µM | 69.7 µM
CSc1c(C#N)c2n(c3ccccc3[n+]2C)c2ncccc12 | 50.3 µM | > 100 µM | > 100 µM | > 100 µM | > 100 µM | > 100 µM | > 100 µM | > 100 µM | 40.3 µM | 51.6 µM | 91.1 µM | 45.3 µM | > 100 µM | 86.9 µM
CSCCC(NC(c1ccccc1)c1ccccc1)[P+](=O)O (stereo not drawn) | > 100 µM | > 100 µM | > 100 µM | > 100 µM | > 100 µM | > 100 µM | > 100 µM | > 100 µM | > 100 µM | > 100 µM | > 100 µM | > 100 µM | > 100 µM | > 100 µM
C[C@@H]1CCC2[C@@H](C)C(=O)O[C@@H]3C4C[C@@H]1[C@@]23OO[C@@]4(C)O (stereo partly drawn) | > 100 µM | > 100 µM | > 100 µM | > 100 µM | > 100 µM | > 100 µM | > 100 µM | > 100 µM | > 100 µM | > 100 µM | > 100 µM | > 100 µM | > 100 µM | > 100 µM
CCC1(C)N=C(C(N)=O)c2ncn(N=C(C)C)c2N1 (stereo not drawn) | > 100 µM | > 100 µM | > 100 µM | > 100 µM | > 100 µM | > 100 µM | > 100 µM | > 100 µM | > 100 µM | > 100 µM | > 100 µM | > 100 µM | > 100 µM | > 100 µM
C=C(Cl)C(Cl)(CBr)CCC(Cl)C(C)(C)Cl (stereo not drawn) | 1.32 µM | 3.9 µM | 2.48 µM | 14.7 µM | 4.04 µM | 26.3 µM | 29.3 µM | 1.94 µM | 22.8 µM | 34.3 µM | 3.88 µM | 3.36 µM | 0.872 µM | 2.92 µM
COc1ccc(C)cc1NC(=S)N/N=C/c1ccc(SC)cc1 | > 100 µM | > 100 µM | > 100 µM | > 100 µM | > 100 µM | > 100 µM | > 100 µM | > 100 µM | > 100 µM | > 100 µM | > 100 µM | > 100 µM | 76.3 µM | > 100 µM
Cc1cc(=Nc2ccc3c(c2)c(N)cc(C)[n+]3C)nc(N)n1C | > 100 µM | > 100 µM | > 100 µM | > 100 µM | > 100 µM | > 100 µM | > 100 µM | > 100 µM | > 100 µM | > 100 µM | > 100 µM | > 100 µM | > 100 µM | > 100 µM
O=C(/C=C/c1ccc(O)c(O)c1)OCCOC(=O)/C=C/c1ccc(O)c(O)c1 | > 100 µM | 85.8 µM | > 100 µM | > 100 µM | 47.4 µM | > 100 µM | 63.2 µM | 41.8 µM | > 100 µM | > 100 µM | > 100 µM | 86.5 µM | > 100 µM | > 100 µM
